The values below come from article PMC6990405, “Synthesis and Structure–Activity relationship of 1-(5-isoquinolinesulfonyl)piperazine analogues as inhibitors of Mycobacterium tuberculosis IMPDH” (European Journal of Medicinal Chemistry, 2019).

In brackets after ≈: the same amount, converted by molar mass.

The test relates to M. tuberculosis SRMV2.6 (IMPDH Tyr487Cys). It is filed as cell-based, Mycobacterium tuberculosis.
On to `O=C(Cc1ccc([N+](=O)[O-])cc1)N1CCN(S(=O)(=O)c2cccc3cnccc23)CC1` [Compound 30, 1-(4-(isoquinolin-5-ylsulfonyl)piperazin-1-yl)-2-(4-nitrophenyl)ethan-1-one], for which the “MIC90 against SRMV2.6” value was over 250 µM.
Still for that read-out and setting: as for `O=C(CC1CCC2(CC1)OCCO2)N1CCN(S(=O)(=O)c2cccc3cnccc23)CC1` [Compound 23, 2-(1,4-dioxaspiro[4.5]decan-8-yl)-1-[4-(isoquinoline-5-sulfonyl)piperazin-1-yl]ethan-1-one], the figure is over 250 µM.
Consider `O=C(NCCNS(=O)(=O)c1cccc2cnccc12)c1cc([N+](=O)[O-])cc([N+](=O)[O-])c1` [Compound 21, N-{2-[(isoquinoline-5-sulfonyl)amino]ethyl}-3,5-dinitrobenzamide], for which the “MIC90 against SRMV2.6” value was determined as 3.9 µM (≈ 1.74 µg/mL) and the “fold more active against SRMV2.6 than wild-type M. tuberculosis” value was found to be 4 fold.
Consider `O=S(=O)(c1cccc2cnccc12)N1CCN(C(=S)Nc2ccc3c(c2)OCO3)CC1` [Compound 42, N-(benzo[d][1,3]dioxol-5-yl)-4-(isoquinolin-5-ylsulfonyl)piperazine-1-carbothioamide], for which the “MIC90 against SRMV2.6” value was over 100 µM.
On the same count and under the same terms, as for `COc1cc(C(=O)N2CCN(S(=O)(=O)c3cccc4cnccc34)CC2)cc(OC)c1OC` [Compound 20, [4-(isoquinoline-5-sulfonyl)piperazin-1-yl](3,4,5-trimethoxyphenyl)methanone], the figure is over 125 µM; as for `O=C(c1cc([N+](=O)[O-])cc([N+](=O)[O-])c1)N1CCN(S(=O)(=O)c2cccc3cnccc23)CC1` [Compound 19, [4-(isoquinoline-5-sulfonyl)piperazin-1-yl](3,5-dinitrophenyl)methanone], 100 µM (≈ 47.1 µg/mL).
On the same count and under the same terms, as for `O=C(Nc1cccc(C(F)(F)F)c1)N1CCN(S(=O)(=O)c2cccc3cnccc23)CC1` [Compound 32, 4-(isoquinolin-5-ylsulfonyl)-N-(3-(trifluoromethyl)phenyl)piperazine-1-carboxamide], the figure is 125 µM (≈ 58.1 µg/mL); as for `O=C(C1CCCCC1)N1CCN(S(=O)(=O)c2ccc3ccccc3c2)CC1` [Compound 8, Cyclohexyl[4-(naphthalene-2-sulfonyl)piperazin-1-yl]methanone], over 100 µM.
Same read-out and setting: as for `O=C(C1CCCCC1)N1CCC(NS(=O)(=O)c2cccc3cnccc23)CC1` [Compound 5, N-[1-(cyclohexanecarbonyl)piperidin-4-yl]isoquinoline-5-sulfonamide], the figure is over 100 µM; as for `O=C(C1CCCCC1)N1CCN(S(=O)(=O)c2cccc3ccccc23)CC1` [Compound 7, Cyclohexyl[4-(naphthalene-1-sulfonyl)piperazin-1-yl]methanone], over 100 µM.
As for `O=C(Nc1ccc(F)c(Cl)c1)N1CCN(S(=O)(=O)c2cccc3cnccc23)CC1` [Compound 36, N-(3-chloro-4-fluorophenyl)-4-(isoquinolin-5-ylsulfonyl)piperazine-1-carboxamide], the “MIC90 against SRMV2.6” value came out at 62.5 µM (≈ 28.1 µg/mL).
On the same count and under the same terms, as for `Cc1cc2c(S(=O)(=O)N3CCN(C(=O)C4CCCCC4)CC3)cccc2cn1` [Compound 6, Cyclohexyl[4-(3-methylisoquinoline-5-sulfonyl)piperazin-1-yl]methanone], the figure is over 100 µM; as for `O=C(Nc1ccc(Cl)cc1)N1CCN(S(=O)(=O)c2cccc3cnccc23)CC1` [Compound 33, N-(4-chlorophenyl)-4-(isoquinolin-5-ylsulfonyl)piperazine-1-carboxamide], over 250 µM; as for `Cc1ccc(NC(=O)N2CCN(S(=O)(=O)c3cccc4cnccc34)CC2)cc1Cl` [Compound 38, N-(3-chloro-4-methylphenyl)-4-(isoquinolin-5-ylsulfonyl)piperazine-1-carboxamide], 100 µM (≈ 44.5 µg/mL).
As to `Cc1cccc(CC(=O)N2CCN(S(=O)(=O)c3cccc4cnccc34)CC2)c1` [Compound 28, 1-(4-(isoquinolin-5-ylsulfonyl)piperazin-1-yl)-2-(m-tolyl)ethan-1-one], the “MIC90 against SRMV2.6” value is over 250 µM.
Turning to `Cc1ccc(NC(=O)N2CCN(S(=O)(=O)c3cccc4cnccc34)CC2)c([N+](=O)[O-])c1` [Compound 39, 4-(isoquinolin-5-ylsulfonyl)-N-(4-methyl-2-nitrophenyl)piperazine-1-carboxamide], the “MIC90 against SRMV2.6” value was found to be 25 µM (≈ 11.4 µg/mL).
Still for that read-out and setting: as for `O=C(Cc1cccc(O)c1)N1CCN(S(=O)(=O)c2cccc3cnccc23)CC1` [Compound 25, 2-(3-hydroxyphenyl)-1-[4-(isoquinoline-5-sulfonyl)piperazin-1-yl]ethan-1-one], the figure is over 250 µM.
The same measure, in the same setting: as for `O=C(c1ccccc1)N1CCN(S(=O)(=O)c2cccc3cnccc23)CC1` [Compound 15, [4-(isoquinoline-5-sulfonyl)piperazin-1-yl](phenyl)methanone], the figure is over 100 µM; as for `N#Cc1cccc(CC(=O)N2CCN(S(=O)(=O)c3cccc4cnccc34)CC2)c1` [Compound 24, 3-{2-[4-(isoquinoline-5-sulfonyl)piperazin-1-yl]-2-oxoethyl}benzonitrile], over 250 µM; as for `COc1cccc(CC(=O)N2CCN(S(=O)(=O)c3cccc4cnccc34)CC2)c1` [Compound 26, 1-[4-(isoquinoline-5-sulfonyl)piperazin-1-yl]-2-(3-methoxyphenyl)ethan-1-one], over 250 µM.
As for `CC(C)(C)C(=O)N1CCN(S(=O)(=O)c2cccc3cnccc23)CC1` [Compound 11, 1-[4-(isoquinoline-5-sulfonyl)piperazin-1-yl]-2,2-dimethylpropan-1-one], the “MIC90 against SRMV2.6” value was 100 µM (≈ 36.1 µg/mL).
As for `O=C(NCCNS(=O)(=O)c1cccc2cnccc12)C1CCCCC1` [Compound 2, N-{2-[(isoquinoline-5-sulfonyl)amino]ethyl}cyclohexanecarboxamide], the “MIC90 against SRMV2.6” value was over 250 µM.
On the same count and under the same terms, as for `CC1CN(S(=O)(=O)c2cccc3cnccc23)CCN1C(=O)C1CCCCC1` (centres unmarked) [Compound 3, Cyclohexyl[4-(isoquinoline-5-sulfonyl)-2-methylpiperazin-1-yl]methanone], the figure is 100 µM (≈ 40.2 µg/mL); as for `O=C(OCc1ccccc1)N1CCN(S(=O)(=O)c2cccc3cnccc23)CC1` [Compound 49, Benzyl 4-(isoquinolin-5-ylsulfonyl)piperazine-1-carboxylate], 100 µM (≈ 41.1 µg/mL); as for `O=C(Nc1ccc2c(c1)OCO2)N1CCC(NS(=O)(=O)c2cccc3cnccc23)CC1` [Compound 43, 4-[(isoquinoline-5-sulfonyl)amino]-N-(2H-1,3-benzodioxol-5-yl)piperidine-1-carboxamide], over 100 µM.
The same measure, in the same setting: as for `O=C(Cc1ccc(F)cc1)N1CCN(S(=O)(=O)c2cccc3cnccc23)CC1` [Compound 29, 2-(4-fluorophenyl)-1-(4-(isoquinolin-5-ylsulfonyl)piperazin-1-yl)ethan-1-one], the figure is over 100 µM.
For the compound `O=C(NCCNS(=O)(=O)c1cccc2cnccc12)C1CC1` [Compound 9, N-{2-[(isoquinoline-5-sulfonyl)amino]ethyl}cyclopropanecarboxamide], the “MIC90 against SRMV2.6” value stood at 100 µM (≈ 31.9 µg/mL).
Still for that read-out and setting: as for `O=C(Nc1ccc2c(c1)OCO2)N1CCN(S(=O)(=O)c2cccc3cnccc23)CC1` [Compound 41, N-(benzo[d][1,3]dioxol-5-yl)-4-(isoquinolin-5-ylsulfonyl)piperazine-1-carboxamide], the figure is over 100 µM.
